In article PMC12446476 (Nature Communications, 2025):
Converted amounts (≈) assume the structure as drawn. “And” between values parts separate entries of the source, which are not always exact repeats. Identical values can stand only once. Like-named read-outs stand apart in the source and are kept apart here.

Experiments:
[1] = tested on: Salmonella typhimurium (TA1535, TA1537, TA98 and TA100); assay type: cell-based
Experimental: Ames assays were performed using four strains of Salmonella typhimurium (TA1535, TA1537, TA98 and TA100) and a single strain of E. coli (WRP2 uvrA) in the presence and absence of S9 tissue homogenate. Dose levels (µg/plate) up to 4000 were assessed for WP2 uvrA and TA98, 500 for TA1535, 250 for TA1537 and 62.5 for TA100.

[2] = tested on: human lymphocytes; assay: In vitro micronucleus test; assay type: cell-based
[3] = tested on: Caco-2 cell monolayers
Experimental: Various controls were assessed in parallel, including atenolol (low permeability) and diclofenac (high permeability).
The instrument operated in positive ionisation mode (ESI + ) over a m/z range of 80–1000 (n = 1 measure per sample). Data were extracted from chromatograms using calculated monoisotopic accurate masses for protonated molecular ions within 5 ppm windows.

[4] = tested on: N. gonorrhoeae; assay: MIC determination, broth microdilution (baseline for liquid-based assays); assay type: cell-based, Neisseria gonorrhoeae; conditions: for MIC: Neisseria gonorrhoeae
Excerpt: The 2024 WHO N. gonorrhoeae reference strains were used for quality control. Only whole MIC doubling dilutions are reported. Clinical breakpoints or the epidemiological cutoff (ECOFF, to indicate azithromycin resistance) from EUCAST (v14.0, https://www.eucast.org/clinical_breakpoints) were used to classify isolates as antimicrobial susceptible or resistant. […] Two times the standard inoculum defined by CLSI was used to establish consistent growth in untreated control samples for some strains. In vitro time-kill assays were performed according to CLSI guidelines[65] using Columbia Broth (BD Difco) supplemented with 1% IsoVitaleX Enrichment (BD). Viable bacterial counts were generated by plating 10-fold serially diluted samples on GC agar plates containing 1% IsoVitaleX Enrichment (BD).

[5] = biological target: recombinant NgFabI protein (Neisseria gonorrhoeae, UniProt A0ACH0F547); assay: biochemical
recombinant NgFabI protein, sequence (A0ACH0F547 entry or part of it): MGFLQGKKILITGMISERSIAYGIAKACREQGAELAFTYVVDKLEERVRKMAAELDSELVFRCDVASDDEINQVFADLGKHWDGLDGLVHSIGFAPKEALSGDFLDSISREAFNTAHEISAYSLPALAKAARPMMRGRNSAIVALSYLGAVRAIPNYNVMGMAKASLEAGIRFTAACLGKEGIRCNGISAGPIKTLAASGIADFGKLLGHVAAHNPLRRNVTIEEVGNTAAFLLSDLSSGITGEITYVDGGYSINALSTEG
Experimental: FabI activity was monitored by measuring NADH consumption. […] To initiate reactions, 50 µM NADH was added, and absorbance was monitored at 340 nm every 12 s for a total of 40 min using a Spectramax Plus 384 plate reader (Molecular Devices) at a controlled temperature of 30 °C. Data were analysed using the XLfit Microsoft Excel plugin (version 5.5). IC50 values were determined using a logistic sigmoid curve-fitting of the inhibitor dose response curves.

[6] = tested on: S. aureus; assay: MIC determination for S. aureus, broth dilution; assay type: cell-based; conditions: Staphylococcus aureus, ATCC29213; S. aureus ATCC 29213
[7] = TA98, without S9, 62.5 µg/plate
[8] = TA100, without S9, 15.6 µg/plate
[9] = TA100, without S9, 31.3 µg/plate
[10] = TA1535, without S9, 10 µg/plate
[11] = TA1535, without S9, 15.6 µg/plate
[12] = TA1535, without S9, 31.3 µg/plate
[13] = TA1535, without S9, 62.5 µg/plate
[14] = TA1535, without S9, 250 µg/plate
[15] = TA1537, without S9, 10 µg/plate
[16] = TA1537, without S9, 15.6 µg/plate
[17] = TA1537, without S9, 31.3 µg/plate
[18] = TA1537, without S9, 62.5 µg/plate

Q: With `Cc1c(CN(C)C(=O)/C=C/c2cnc3c(c2)N[C@H](C)[C@H](OP(=O)([O-])[O-])C(=O)N3)oc2ccccc12.[Na+].[Na+]` [Debio 1453 P] as the compound, how does the “Ames bacterial mutation assessment, Mean” value ([1]; TA98, with S9, 62.5 µg/plate) read?
A: Its value is 34.

Q: What about the Colony count ([1]; TA98, with S9, 62.5 µg/plate) of the same compound?
A: The Colony count was 35 and 36 and 30.

Q: And the “Ames bacterial mutation assessment, Mean” value ([1]; TA98, with S9, 250 µg/plate)?
A: The value was 26.

Q: What about the Colony count ([1]; TA98, with S9, 250 µg/plate) of the same compound?
A: The Colony count was 28 and 26 and 23.

Q: And the “Ames bacterial mutation assessment, Mean” value ([1]; TA98, with S9, 500 µg/plate)?
A: The value was 12.

Q: What about the Colony count ([1]; TA98, with S9, 500 µg/plate) of the same compound?
A: Its Colony count is 14 and 12 and 11.

Q: What about the “Ames bacterial mutation assessment, Mean” value [1, 7] of the same compound?
A: Its value is 32.

Q: What about the Colony count [1, 7] of the same compound?
A: The Colony count was 36 and 29 and 32.

Q: And the “Ames bacterial mutation assessment, Mean” value ([1]; TA98, without S9, 250 µg/plate)?
A: Its value is 22.

Q: What about the Colony count ([1]; TA98, without S9, 250 µg/plate) of the same compound?
A: Its Colony count is 24 and 21 and 20.

Q: And the “Ames bacterial mutation assessment, Mean” value ([1]; TA98, without S9, 500 µg/plate)?
A: The value was 12.

Q: What about the Colony count ([1]; TA98, without S9, 500 µg/plate) of the same compound?
A: The Colony count was 12 and 13 and 10.

Q: What about the “Ames bacterial mutation assessment, Mean” value ([1]; TA100, with S9, 5 µg/plate) of the same compound?
A: The value was 141.

Q: And the Colony count ([1]; TA100, with S9, 5 µg/plate)?
A: Its Colony count is 143 and 140 and 141.

Q: And the “Ames bacterial mutation assessment, Mean” value ([1]; TA100, with S9, 10 µg/plate)?
A: The value was 128.

Q: And the Colony count ([1]; TA100, with S9, 10 µg/plate)?
A: The Colony count was 123 and 133 and 128.

Q: And the “Ames bacterial mutation assessment, Mean” value ([1]; TA100, with S9, 15.6 µg/plate)?
A: The value was 60.

Q: And the Colony count ([1]; TA100, with S9, 15.6 µg/plate)?
A: The Colony count was 57 and 59 and 64.

Q: What about the “Ames bacterial mutation assessment, Mean” value ([1]; TA100, with S9, 31.3 µg/plate) of the same compound?
A: The value was 30.

Q: What about the Colony count ([1]; TA100, with S9, 31.3 µg/plate) of the same compound?
A: Its Colony count is 30 and 29 and 32.

Q: And the “Ames bacterial mutation assessment, Mean” value ([1]; TA100, without S9, 5 µg/plate)?
A: Its value is 146.

Q: What about the Colony count ([1]; TA100, without S9, 5 µg/plate) of the same compound?
A: Its Colony count is 146 and 143 and 149.

Q: What about the “Ames bacterial mutation assessment, Mean” value ([1]; TA100, without S9, 10 µg/plate) of the same compound?
A: The value was 134.

Q: What about the Colony count ([1]; TA100, without S9, 10 µg/plate) of the same compound?
A: Its Colony count is 125 and 145 and 131.

Q: What about the “Ames bacterial mutation assessment, Mean” value [1, 8] of the same compound?
A: The value was 59.

Q: And the Colony count [1, 8]?
A: The Colony count was 66 and 54 and 58.

Q: What about the “Ames bacterial mutation assessment, Mean” value [1, 9] of the same compound?
A: The value was 33.

Q: And the Colony count [1, 9]?
A: Its Colony count is 32 and 31 and 36.

Q: What about the “Ames bacterial mutation assessment, Mean” value ([1]; TA1535, with S9, 10 µg/plate) of the same compound?
A: Its value is 18.

Q: And the Colony count ([1]; TA1535, with S9, 10 µg/plate)?
A: The Colony count was 19 and 16.

Q: What about the “Ames bacterial mutation assessment, Mean” value ([1]; TA1535, with S9, 15.6 µg/plate) of the same compound?
A: The value was 15.

Q: What about the Colony count ([1]; TA1535, with S9, 15.6 µg/plate) of the same compound?
A: The Colony count was 18 and 14.

Q: And the “Ames bacterial mutation assessment, Mean” value ([1]; TA1535, with S9, 31.3 µg/plate)?
A: The value was 16.

Q: And the Colony count ([1]; TA1535, with S9, 31.3 µg/plate)?
A: Its Colony count is 17 and 16 and 14.

Q: What about the “Ames bacterial mutation assessment, Mean” value ([1]; TA1535, with S9, 62.5 µg/plate) of the same compound?
A: The value was 14.

Q: And the Colony count ([1]; TA1535, with S9, 62.5 µg/plate)?
A: Its Colony count is 15 and 12 and 16.

Q: What about the “Ames bacterial mutation assessment, Mean” value ([1]; TA1535, with S9, 250 µg/plate) of the same compound?
A: The value was 6.

Q: What about the Colony count ([1]; TA1535, with S9, 250 µg/plate) of the same compound?
A: The Colony count was 5 and 7.

Q: What about the “Ames bacterial mutation assessment, Mean” value ([1]; TA1535, with S9, 500 µg/plate) of the same compound?
A: Its value is 5.

Q: And the Colony count ([1]; TA1535, with S9, 500 µg/plate)?
A: Its Colony count is 6 and 5.

Q: And the “Ames bacterial mutation assessment, Mean” value [1, 10]?
A: Its value is 19.

Q: And the Colony count [1, 10]?
A: The Colony count was 18 and 21.

Q: What about the “Ames bacterial mutation assessment, Mean” value [1, 11] of the same compound?
A: Its value is 17.

Q: And the Colony count [1, 11]?
A: Its Colony count is 17 and 16.

Q: What about the “Ames bacterial mutation assessment, Mean” value [1, 12] of the same compound?
A: The value was 13.

Q: What about the Colony count [1, 12] of the same compound?
A: Its Colony count is 14 and 13.

Q: And the “Ames bacterial mutation assessment, Mean” value [1, 13]?
A: Its value is 11.

Q: And the Colony count [1, 13]?
A: The Colony count was 11 and 12.

Q: What about the “Ames bacterial mutation assessment, Mean” value [1, 14] of the same compound?
A: Its value is 6.

Q: And the Colony count [1, 14]?
A: The Colony count was 6 and 8 and 4.

Q: And the “Ames bacterial mutation assessment, Mean” value ([1]; TA1535, without S9, 500 µg/plate)?
A: The value was 4.

Q: What about the “Ames bacterial mutation assessment, Mean” value ([1]; TA1537, with S9, 10 µg/plate) of the same compound?
A: The value was 17.

Q: And the Colony count ([1]; TA1537, with S9, 10 µg/plate)?
A: The Colony count was 16 and 19.

Q: What about the “Ames bacterial mutation assessment, Mean” value ([1]; TA1537, with S9, 15.6 µg/plate) of the same compound?
A: The value was 18.

Q: What about the Colony count ([1]; TA1537, with S9, 15.6 µg/plate) of the same compound?
A: Its Colony count is 19 and 16 and 18.

Q: And the “Ames bacterial mutation assessment, Mean” value ([1]; TA1537, with S9, 31.3 µg/plate)?
A: The value was 10.

Q: And the Colony count ([1]; TA1537, with S9, 31.3 µg/plate)?
A: Its Colony count is 10 and 11 and 9.

Q: And the “Ames bacterial mutation assessment, Mean” value [1, 15]?
A: Its value is 19.

Q: What about the Colony count [1, 15] of the same compound?
A: The Colony count was 17 and 20 and 19.

Q: And the “Ames bacterial mutation assessment, Mean” value [1, 16]?
A: Its value is 18.

Q: And the Colony count [1, 16]?
A: Its Colony count is 19 and 20 and 16.

Q: What about the “Ames bacterial mutation assessment, Mean” value [1, 17] of the same compound?
A: The value was 15.

Q: What about the Colony count [1, 17] of the same compound?
A: The Colony count was 16 and 14.

Q: And the “Ames bacterial mutation assessment, Mean” value [1, 18]?
A: The value was 7.

Q: And the Colony count [1, 18]?
A: The Colony count was 8 and 6.

Q: What about the Ames assay result ([1]; presence and absence of S9, highest concentrations tested) of the same compound?
A: The Ames assay result was “non-mutagenic”.

Q: What about the “in vitro micronucleus test result” value [2] of the same compound?
A: Its value is “negative”.

Q: And the “Apparent permeability (Papp)” value [3]?
A: The value was “negligible”.

Q: And the “permeability through transwells A → B” value [3]?
A: Its value is 31.8 ×10⁻⁶ cm/s.

Q: How did the “MIC, broth microdilution” value [4]; 6804 turn out when `Cc1c(CN(C)C(=O)/C=C/c2cnc3c(c2)N[C@H](C)[C@H](O)C(=O)N3)oc2ccccc12` [Debio 1453] was run?
A: Its value is 0.06 µg/mL (≈ 0.143 µM).

Q: What about the “MIC, broth microdilution” value ([4]; AR Bank0175) of the same compound?
A: The value was 0.06 µg/mL (≈ 0.143 µM).

Q: And the “MIC, broth microdilution” value ([4]; AR Bank0179)?
A: The value was 0.06 µg/mL (≈ 0.143 µM).

Q: What about the MIC ([4]; ATCC49226, read-out: MIC, broth microdilution, ATCC 49226) of the same compound?
A: The MIC was 0.125 µg/mL (≈ 0.297 µM).

Q: And the MIC ([4]; ATCC700825, ATCC 700825, read-out: MIC, broth microdilution)?
A: Its MIC is 0.03 µg/mL (≈ 0.0713 µM).

Q: What about the MIC ([4]; read-out: MIC, broth microdilution, WHO V) of the same compound?
A: The MIC was 0.125 µg/mL (≈ 0.297 µM).

Q: What about the MIC ([4]; read-out: MIC, broth microdilution, WHO X) of the same compound?
A: The MIC was 0.125 µg/mL (≈ 0.297 µM).

Q: What about the MIC ([4]; read-out: MIC, broth microdilution, WHO Y) of the same compound?
A: Its MIC is 0.125 µg/mL (≈ 0.297 µM).

Q: And the MIC ([4]; read-out: MIC, broth microdilution, WHO Z)?
A: The MIC was 0.125 µg/mL (≈ 0.297 µM).

Q: What about the MIC ([4]; 6926, read-out: MIC, broth microdilution) of the same compound?
A: Its MIC is 0.06 µg/mL (≈ 0.143 µM).

Q: What about the IC50 [5] of the same compound?
A: Its IC50 is 0.6 nM.

Q: And the MIC [6]?
A: Its MIC is 0.008 µg/mL (≈ 0.019 µM).
